These results are taken from publication PMC8945919 (Biomolecules, 2022).

Entries after “also recorded” stand apart in the source; their conditions may differ. Where no end group is shown, it is not given here.

Data set [1] deals with T1, trypsin (Bos taurus, UniProt P00760).
T1 sequence (P00760 24-246): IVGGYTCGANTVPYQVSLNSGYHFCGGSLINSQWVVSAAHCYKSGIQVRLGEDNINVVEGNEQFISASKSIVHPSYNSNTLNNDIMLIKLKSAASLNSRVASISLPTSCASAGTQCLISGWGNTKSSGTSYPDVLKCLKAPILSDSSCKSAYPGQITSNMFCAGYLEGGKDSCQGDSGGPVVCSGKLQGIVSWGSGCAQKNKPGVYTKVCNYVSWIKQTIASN
The data set is described as follows: Trypsin digestion of RAD16-I followed by MALDI-TOF. As to conditions: for Peak Presence in MALDI Spectra: fragments expected after trypsin digestion of RAD16-I, peptide 100 µM in water (50 µM elsewhere in the source), trypsin 1000:1 peptide:enzyme molar ratio, 0-30 min, untreated and thermally treated (90 °C, 10 min) samples, duplicate. The format is in vitro ADME. On the set-up: key to Peak Presence in MALDI Spectra: peak presence (+); absence (−). On the procedure:
Matrix-assisted laser desorption/ionization time of flight (MALDI-TOF) of trypsin-digested peptide samples was performed on a Bruker Ultraflex mass spectrometer, equipped with a pulsed nitrogen laser (337 nm). The peptide RAD16-I was diluted from a stock solution to a final concentration of 100 µM in water. Trypsin was added in a molar ratio 1000:1 (peptide:enzyme). Peptide samples were incubated with trypsin at 37 °C for 0, 1, 5, 10 and 30 min (performed in duplicate), and boiled in order to inactivate trypsin. Samples were prepared by mixing 0.5 µL of the peptide solution with 1 µL of the matrix solution (0.3 mg/mL, α-cyano-4-hydroxy-cinnamic acid in ethanol/acetone 2:1). The mixture was then spotted on an anchor-chip target (Bruker, Billerica, MA, USA) and allowed to evaporate to dryness at room temperature. Spectra were acquired in positive reflectron mode, using an acceleration voltage of 25 kV. Acquisition was performed in automated mode, using the Autoexecute software (Bruker, Billerica, MA, USA). A total of 1000 spectra, collected in 50-shot series at different positions of the sample spot were averaged for each sample. A mixture of standard peptides of known molecular mass in the range from 750–3500 Da (Bruker) was used for external calibration of the mass spectra.
To evaluate RAD16-I trypsin degradation, we incubated the peptide with trypsin with or without the previous denaturation step (incubation at 90 °C for 10 min). Thus, we incubated the RAD16-I samples with trypsin at 37 °C for different periods of time, and at each timepoint we mixed the reaction product with the α-cyano-4-hydroxy-cinnamic acid matrix and let the sample dry. Finally, samples were analyzed by MALDI. […] Furthermore, small peaks with m/z 1642 and 1558 could be detected, which may correspond to the peptide chain without one amino acid residue, an alanine and an arginine, respectively. These peptides are most likely impurities from the RAD16-I peptide synthesis.
We next aimed to determine if the structural changes observed by CD after denaturing RAD16-I (Figure 2) had any influence on proteolytic degradation. For that, peptide stock solution was diluted to 50 µM and then denatured or not for 10 min at 90 °C. Then, trypsin was added and incubated at 37 °C for different periods of time. The proteolytic reaction was inactivated by boiling the samples, and samples were finally mixed with the matrix and MALDI spectra were acquired. […] Moreover, no differences between untreated and thermally treated samples were detected.
We hypothesized that these unexpected results were due to an inefficient […] of trypsin when MALDI samples were prepared, in which trypsin was inactivated by boiling the samples. […] In this case, the samples were taken and immediately mixed with the MALDI-TOF matrix and evaporated on the sample holder.

A short description of data set [2]: Thermal denaturation of nanofibers imaged by AFM. The format is physicochemical. As to conditions: 100 µM in water, AFM on mica. On the procedure:
(§1) To image the thermal denaturation of the self-assembling peptide, RAD16-I samples were diluted in water from a stock solution (5.38 mM) to a final concentration of 100 µM. The thermal treatment consisted of subjecting the sample to a 90 °C incubation for 10 min. Then, 1 µL of sample was deposited onto freshly cleaved mica (Grade V5 mica, Structure Probe Inc., 01804-CA, West Chester, PA, USA), rinsed twice with Milli-Q water and observed under the AFM. For RAD16-I degradation experiments, samples were prepared as follows: RAD16-I was diluted in water from a stock solution at a final concentration of 100 µM. For thermal treated samples, a 10 min denaturation step (incubation at 90 °C) was performed prior to the enzymatic degradation. Samples were cooled at room temperature and trypsin (Merck, T1426) was added at a 1:1000 molar ratio (enzyme:peptide). Samples (1 µL) were taken at 10 and 60 min and were deposited onto freshly cleaved mica, rinsed twice with Milli-Q water, air dried and scanned under the AFM.
AFM images were obtained with a silicon-scanning probe (AC240-TS, Asylum Research) with a resonance frequency of 70 KHz, spring constant 2 N/m, tip curvature radius <10 nm and 240 μm length. Images were obtained with a Multimode AFM microscope (Nanoscope IIIa, Digital Instruments, Santa Barbara, CA, USA) operating in TappingMode. […]

Data set [3] concerns the target T1, trypsin. Briefly: Trypsin degradation of RAD16-I nanofibers imaged by AFM. The format is in vitro ADME. The settings on record: RAD16-I 100 µM in water, AFM on mica. On the procedure: as §1
AFM images were obtained with a silicon-scanning probe (AC240-TS, Asylum Research) with a resonance frequency of 70 KHz, spring constant 2 N/m, tip curvature radius <10 nm and 240 μm length. Images were obtained with a Multimode AFM microscope (Nanoscope IIIa, Digital Instruments, Santa Barbara, CA, USA) operating in TappingMode. AFM scans were taken at a resolution of 512 × 512 pixels and produced topographic images of samples, whose brightness of features increased as a function of height. Typical scanning parameters were as follows: tapping frequency 75 kHz, RMS amplitude before engagement 1–1.5 V, setpoint 0.7–1 V, integral and proportional gains from 0.3–0.6 and 0.4–0.6, respectively, and scan rate 1.51 Hz.
Because MALDI spectra results indicated peptide proteolysis upon trypsin treatment (Figure 4), we expected to detect structural changes in the peptide using AFM analysis. RAD16-I samples incubated with trypsin were taken at 10 and 60 min and directly spotted into freshly cleaved mica. Then the mica was rinsed with deionized water, dried and observed under the AFM. […]

Data set [4] in a line: Thermal stability of secondary structure by circular dichroism. It counts as physicochemical. Here is the method: Circular dichroism studies were performed on a JASCO-810 spectropolarimeter equipped with a Peltier system. RAD16-I samples (commercially available as PuraMatrix^TM, 354250, Corning, Corning, NY, USA) were diluted from a peptide stock solution (1% in water, 5.38 mM) in deionized water to a final concentration of 25, 50 and 75 µM and allowed to equilibrate at 20 or 90 °C for 10 min prior to analysis. CD data were acquired in a range from 195–240 nm at a band width of 1 nm and scan speed of 20 nm/s.
As a self-assembling peptide, RAD16-I is composed of repeating units of hydrophilic and hydrophobic amino acids, in which the charged residues alternate positive and negative charges, forming a β-sheet structure in aqueous solutions (Figure 1). This characteristic sequence is the one responsible for the self-assembly of the peptide molecules into a hydrogel, formed by a network of interweaving nanofibers from 10–20 nm in diameter and 50–200 nm in pore size and, thus, the applicability of the material as a scaffold in biomedical applications. Circular dichroism (CD) studies were performed to characterize the RAD16-I peptide structure. As a peptide with a β-sheet secondary structure, RAD16-I circular dichroism spectrum at room temperature (20 °C) presented a minimum molar ellipticity at 218 nm, which represents the β-sheet content, and a maximum of approximately 195 nm, which corresponds to the backbone twist of the peptide in the β-sheet configuration [38]. […] This spectrum was also maintained when the peptide was incubated at 40 °C.

Data set [5] relates to trypsin. The data set is described as follows: trypsin in water, molar ratio 1000:1 (peptide:enzyme); untreated (non-denatured) RAD16-I. The settings on record: 37 °C, up to 30 min.
Data set [6] deals with trypsin. The data set is described as follows: trypsin in water, molar ratio 1000:1 (peptide:enzyme); RAD16-I denatured for 10 min at 90 °C before trypsin. The settings on record: 37 °C, up to 30 min.

Consider “ADARADAR [theoretical trypsin digestion fragment of RAD16-I]”, for which the “Peak Presence in MALDI Spectra” value in data set [1] (37 °C, MALDI-TOF) was “+”.

For “ADAR [theoretical trypsin digestion fragment of RAD16-I]”, the “Peak Presence in MALDI Spectra” value in data set [1] (37 °C, MALDI-TOF) is on record as “+”.

For the substance “ADARADARADA-NH2 [theoretical trypsin digestion fragment of RAD16-I]”, in data set [1] (37 °C, MALDI-TOF), the “Peak Presence in MALDI Spectra” value is given as “+”.

Take “ADARADARADAR [theoretical trypsin digestion fragment of RAD16-I]”: the “Peak Presence in MALDI Spectra” value in data set [1] (37 °C, MALDI-TOF) is listed as “+”.

Consider “AcN-RADAR [theoretical trypsin digestion fragment of RAD16-I]”, for which, in data set [1] (37 °C, MALDI-TOF), the “Peak Presence in MALDI Spectra” value is “+”.

“AcN-RADARADARADARADA-CONH2 [RAD16-I, self-assembling amphiphilic peptide scaffold, commercially available as PuraMatrix (1% in water)]”: the “nanofiber network by AFM, thermally treated samples” value in data set [2] (90 °C for 10 min) is listed as “significantly less dense”. In data set [2] (room temperature), the “nanofiber structure by AFM, untreated samples” value was “dense network of long nanofibers”. Moreover, in data set [3] (90 °C 10 min then cooled, trypsin 1:1000 enzyme:peptide, 10 min), the “nanofibers after trypsin incubation, thermally treated samples, 10 min” value is on record as “only the presence of short fibers was detected”. The “nanofibers after trypsin incubation, thermally treated samples, 60 min” value in data set [3] (90 °C 10 min then cooled, trypsin 1:1000 enzyme:peptide, 60 min) was “most of the fibers had disappeared”. Besides, the “nanofibers after trypsin incubation, untreated (RT) samples, 10 min to 60 min” value in data set [3] (trypsin 1:1000 enzyme:peptide molar ratio) is “slight change in nanofiber density”. In data set [4] (5 mg/mL in water, 2.9 mM, incubated at 20 or 90 °C for 10 min, then diluted to 25 µM to record spectra), the “thermal denaturation of concentrated solutions by CD” value is given as “thermal denaturalization was not observed”. In addition, the “CD spectrum / secondary structure at 20 °C” value in data set [4] (25, 50 and 75 µM in deionized water, 20 °C, 10 min equilibration, CD 195-240 nm) was “characteristic β-sheet spectrum”. Also, the “CD β-sheet spectrum at 40 °C” value in data set [4] (25, 50 and 75 µM in deionized water, 40 °C) is listed as “maintained”. In addition, the “CD secondary structure at 90 °C, diluted samples” value in data set [4] (25, 50 and 75 µM in deionized water, 90 °C, 10 min) was “structural transition from β-sheet to random coil”. Besides, the “reversibility of the β-sheet to random coil shift” value in data set [4] (diluted samples after heating at 90 °C, kept at room temperature) is given as “irreversible at room temperature for at least a week”. The “Peak Presence in MALDI Spectra” value in data set [1] (37 °C, MALDI-TOF) is given as “+”. Besides, in data set [1] (peptide 50 µM, trypsin, 37 °C, 1 min or 30 min, reaction stopped by boiling, MALDI-TOF, regardless of incubation time, no difference between untreated and thermally treated), the “peak belonging to RAD16-I (m/z 1712) after incubation with trypsin” value is recorded as “significantly reduced”. In data set [1] (thermally denatured (90 °C, 10 min) samples compared with untreated, MALDI-TOF, Figure 4h), the “disappearance of RAD16-I peak (m/z 1713) upon trypsin treatment, denatured versus untreated samples” value is listed as “much faster”. Besides, the “degradation of the peptide by trypsin (m/z 1713 peak)” value in data set [1] (untreated and thermally treated samples, taken and immediately mixed with MALDI-TOF matrix and evaporated (no boiling)) is listed as “very fast”.

With “ADARADA-NH2 [theoretical trypsin digestion fragment of RAD16-I]”, the “Peak Presence in MALDI Spectra” value in data set [1] (37 °C, MALDI-TOF) is “+”.

Take “ADARADARADARADA-NH2 [theoretical trypsin digestion fragment of RAD16-I]”: the “Peak Presence in MALDI Spectra” value in data set [1] (37 °C, MALDI-TOF) was “−”.

Take “AcN-RADARADARADAR [theoretical trypsin digestion fragment of RAD16-I]”: in data set [1] (37 °C, MALDI-TOF), the “Peak Presence in MALDI Spectra” value is recorded as “+”.

For the substance AcN-RADARADARADARADA-CONH2, the fragment found entry in data set [5] is recorded as “AcN-RADAR, 1 min; also recorded: AcN-RADARADAR, 1 min; also recorded: AcN-RADARADARADAR, 1 min; also recorded: ADAR, 1 min; also recorded: ADARADARADA-CONH2, 1 min; also recorded: ADARADA-CONH2, 1 min; also recorded: ADARADARADAR, 1 min; also recorded: ADARADAR, 1 min”; in data set [6] it was “AcN-RADARADAR, 1 min; also recorded: AcN-RADARADARADAR, 1 min; also recorded: ADAR, 1 min; also recorded: ADARADARADA-CONH2, 1 min; also recorded: ADARADA-CONH2, 1 min; also recorded: ADARADARADAR, 1 min; also recorded: ADARADAR, 1 min; also recorded: AcN-RADAR, 1 min”.

In the case of “AcN-RADARADAR [theoretical trypsin digestion fragment of RAD16-I]”, in data set [1] (37 °C, MALDI-TOF), the “Peak Presence in MALDI Spectra” value was “+”.
